Data as given in patent US9936699B2, “Halogen-substituted compounds” (BAYER CROPSCIENCE AKTIENGESELLSCHAFT, priority 2014, dated 2018).

Tests used:
[1] = test system: mustard beetle larvae (Phaedon cochleariae); experiment: Phaedon cochleariae spray test (Chinese cabbage leaf disks); assay type: in vivo; details: foliar, 168 h, read-out: mortality in %
Source text: Phaedon cochleariae—Spray Test
Solvent: 78.0 parts by weight of acetone
• 1.5 parts by weight of dimethylformamide Emulsifier: alkylarylpolyglycol ether
Chinese cabbage (Brassica pekinensis) leaf disks are sprayed with a preparation of the active ingredient of the desired concentration.

[2] = test system: adult unfed cat fleas (Ctenocephalides felis); experiment: Ctenocephalides felis oral test (CTECFE); assay type: in vivo; details: 48 h, read-out: mortality in %
Protocol: Ctenocephalides felis—Oral Test (CTECFE)
(§1) Solvent: dimethyl sulfoxide
Approximately 20 adult unfed cat fleas (Ctenocephalides felis) are placed in flea chambers. The blood chamber, sealed with parafilm on the bottom, are filled with cattle blood supplied with compound solution and placed on the gauze covered top of the flea chamber, so that the fleas are able to suck the blood. The blood chamber is heated to 37° C. whereas the flea chamber is kept at room temperature.

[3] = test system: green peach aphid (Myzus persicae); experiment: Myzus persicae spray test (Chinese cabbage leaf disks); assay type: in vivo; details: Myzus persicae, foliar, 144 h, read-out: mortality in %
Protocol: Myzus persicae—Spray Test
(§2) Solvent: 78.0 parts by weight acetone
(§3) • 1.5 parts by weight dimethylformamide Emulsifier: alkylarylpolyglycol ether
Chinese cabbage (Brassica pekinensis) leaf disks infected with all instars of the green peach aphid (Myzus persicae), are sprayed with a preparation of the active ingredient of the desired concentration.
(§4) After 6 days mortality in % is determined.

[4] = test system: cattle ticks (Boophilus microplus) strane Parhurst, SP-resistant; experiment: Boophilus microplus dip test (BOOPMI Dip); assay type: in vivo; details: 100 ppm, egg deposition after 7 days
Source text: Boophilus microplus—Diptest (BOOPMI Dip)
Test animal: cattle ticks (Boophilus microplus) strane Parhurst, SP-resistant
as §1
This compound solution is pipetted into tubes. 8-10 engorged, adult, female cattle ticks (Boophilus microplus) are placed in perforated tubes. These tubes are immersed in the aqueous compound solution until the ticks are completely moistened. After the liquid has drained off, the ticks are transferred to a filter paper in a plastic tray and stored in a climate chamber.
(§5) After 7 days egg deposition of fertile eggs is monitored. Eggs where fertility is not visible are stored in a climate chamber till hatching after about 42 days. An efficacy of 100% means all eggs are infertile; 0% means all eggs are fertile.

[5] = test system: mustard beetle larvae (Phaedon cochleariae); experiment: Phaedon cochleariae spray test (cabbage leaves); details: in Brassica oleracea, 168 h, read-out: mortality in %
[6] = test system: two spotted spidermite (Tetranychus urticae); experiment: Tetranychus urticae spray test OP-resistant (French bean leaf disks); assay type: in vivo; details: Tetranychus urticae, foliar, 144 h, read-out: mortality in %
Protocol: Tetranychus urticae—Spray Test OP-Resistant
as §2, §3
French bean (Phaseolus vulgaris) leaf disks which are heavily infested with all stages of the two spotted spidermite (Tetranychus urticae) are sprayed with a preparation of the active ingredient of the desired concentration.
as §4

[7] = test system: fall armyworm larvae (Spodoptera frugiperda); experiment: Spodoptera frugiperda spray test (maize leaf sections); assay type: in vivo; details: Spodoptera frugiperda, 168 h, read-out: mortality in %
Source text: Spodoptera frugiperda—Spray Test
as §2, §3
Maize (Zea mays) leaf sections are sprayed with a preparation of the active ingredient of the desired concentration. Once dry, the leaf sections are infested with fall armyworm larvae (Spodoptera frugiperda).

[8] = test system: adult house flies (Musca domestica); experiment: Musca domestica test (MUSCDO); assay type: in vivo; details: Musca domestica, 48 h, read-out: mortality in %
Source text: Musca domestica—Test (MUSCDO)
as §1
10 adult house flies (Musca domestica) are transferred into a container, containing a sponge soaked with a mixture of sugar solution and compound solution of the desired concentration.

[9] = test system: larvae of the Australian sheep blowfly (Lucilia cuprina); experiment: Lucilia cuprina test (LUCICU); assay type: in vivo; details: Lucilia cuprina, 48 h, read-out: mortality in %
Protocol: Lucilia cuprina—Test (LUCICU)
as §1
10 mg active compound are dissolved in 0.5 ml Dimethylsulfoxid. Serial dilutions are made to obtain the desired rates.
Approximately 20 […] instar larvae of the Australian sheep blowfly (Lucilia cuprina) are transferred into a test tube containing minced horse meat and compound solution of the desired concentration.

[10] = test system: adult engorged female ticks (Boophilus microplus); experiment: Boophilus microplus injection test (BOOPMI Inj); assay type: in vivo; details: 20 μg/animal, egg deposition after 7 days
Protocol: Boophilus microplus—Injectiontest (BOOPMI Inj)
as §1
Five adult engorged female ticks (Boophilus microplus) are injected with 1 μl compound solution into the abdomen. The ticks are transferred into replica plates and incubated in a climate chamber.
as §5

[11] = test system: Tick nymphs (Amblyomma hebraeum); experiment: Amblyomma hebraeum test (AMBYHE); assay type: in vivo; details: Amblyomma hebraeum, 1008 h, read-out: mortality in %
Protocol: Amblyomma hebraeum—Test (AMBYHE)
as §1
Tick nymphs (Amblyomma hebraeum) are placed in perforated plastic beakers and immersed in the aqueous compound solution for one minute. Ticks are transferred to a filter paper in a petridish and incubated in a climate chamber.

[12] = test system: two-spotted spider mite (Tetranychus urticae); experiment: Tetranychus urticae spray test; OP-resistant (bean plants); assay type: in vivo; details: Tetranychus urticae, 168 h, read-out: mortality in %
[13] = logP determination by HPLC on reversed-phase column (C18), EEC Directive 79/831 Annex V.A8; assay type: physicochemical; details: reversed-phase C18, acetonitrile/water with formic acid

**Q.** Which results are given for `CSc1c(C(F)(F)C(F)(F)F)nn(C)c1-n1cc(-c2ccc(Cl)c(C(=O)NC3(C#N)CC3)c2)cn1` [Example I-02, 2-chloro-N-(1-cyanocyclopropyl)-5-[2′-methyl-4′-(methylsulfanyl)-5′-(pentafluoroethyl)-2′H-1,3′-bipyrazol-4-yl]benzamide]?
**A.** mortality at 100 g/ha [1]: 100%; mortality at 100 ppm [2]: 100%; mortality at 100 g/ha [3]: 100%; efficacy (infertile eggs) [4]: 100%; mortality at 4 ppm [5]: 100%; mortality at 100 g/ha [6]: 100%; mortality at 100 g/ha [7]: 100%; mortality at 100 ppm [8]: 90%; mortality at 100 ppm [9]: 100%; efficacy (infertile eggs) [10]: 100%; mortality at 100 ppm [11]: 100%; mortality at 4 ppm [12]: 100%; logP [13]: 3.56; chromatographic logP ([13]; reversed-phase C18 HPLC column): 3.58
